Measurements reported in PubChem BioAssay (NCI).
Values joined by “and” are separate entries in the source; they are usually repeats but may differ in a detail not shown here. Equal values may be shown once.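 96-well plates; 48 h exposure; 5 concentrations. Endpoints by linear interpolation between flanking doses. Not reached: highest tested concentration assigned. GI50 is the concentration that inhibits growth by half. Definition used: TGI = concentration required for complete inhibition of growth.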 Numbered stars: 1 amine (or outer) side, 2 acyl side, 3 side chain; on linkers, the order of the positions; unused ones are H or OH. *1 amine or outer side, *2 acyl side, *3 side chain or, on linkers, in order; H or OH if unused. Bridge positions count the residues as written; N and C are the ends. Where a SMILES comes first, the peptide text is derived from it. Square brackets hold non-standard residues; d marks the D form. Peptide text beside a SMILES is read from it. I, II: the chains in the order shown. [ ]: non-standard residue; d: D form. The star is where a group is joined. Actinocin(9to1) = Cc1c2oc3c(C)ccc(C(=O)[*:1])c3nc-2c(C(=O)[*:2])c(N)c1=O; X11 = C/C=C/CC(C)C(O)[C@H](N[*:1])C(=O)[*:2]; aThr = C[C@H](O)[C@H](N)C(=O)O; NMeV = CN[C@H](C(=O)O)C(C)C; Decanoyl = CCCCCCCCCC(=O)*; Leu(ol) = CC(C)C[C@H](N)CO; Aib = CC(C)(N)C(=O)O; Sar = CNCC(=O)O

Each compound was assayed on MDA-MB-468 breast (assay: NCI anticancer screen, dose series, 48 h).

Structure (SMILES)	GI50	TGI
CCN(CC)CC(O)c1cc(-c2ccc(Cl)cc2)nc2c(C)c(Cl)ccc12 (stereo unspecified)	1890 nM	3420 nM
CCN1C(=O)N(CC)C2SC(N/N=C/c3cccs3)=NC21 (stereo unspecified)	253 nM	16600 nM
O=C1c2ccc3c4c(ccc(c24)C(=O)N1CCNCc1ccccc1)C(=O)N(CCNCc1ccccc1)C3=O	1590 nM	3100 nM
CN1CCN(CCC=C2c3ccccc3Sc3ccc(S(=O)(=O)N(C)C)cc32)CC1	1380 nM and 1530 nM	2970 nM and 4260 nM
CCCCCCCCCCCCCCCCCC[S+](C)CC (stereo unspecified)	527 nM	2660 nM
Cn1c(=O)c(Oc2ccc(F)cc2F)cc2cnc(NCC(C)(C)O)nc21	> 25000 nM	> 25000 nM
CN(C)CCCCNc1ccc(NCCCCN(C)C)c2c1C(=O)c1c(O)ccc(O)c1C2=O	13700 nM	26500 nM
CCc1ccc(SC2c3ccc(N(CC)CC)cc3Oc3nc(N)c(C#N)c(N)c32)cc1 (stereo unspecified)	1580 nM	3060 nM
COc1cc(N(CCCl)CCCl)ccc1/C=N\NC(=O)c1cccnc1	1280 nM	6830 nM
COc1ncc(-c2ccc3nccc(C#CCCCCC(=O)NO)c3c2)cc1NS(=O)(=O)c1ccc(F)cc1F	21.4 nM	116 nM
CCCCOC(=O)c1c(C)[nH]c(/C=C2\N=C(c3ccc[nH]3)C=C2OC)c1C	451 nM	2020 nM
Cc1cc(C)c2c(c1)N(C)c1ncnc(-n3cnc4cc(C)ccc43)c1CC2C (stereo unspecified)	3240 nM	27000 nM
COc1cc(C2CC(c3cccc(Nc4ccnc5cc(Cl)ccc45)c3)=NN2c2ccccc2)cc(OC)c1OC (stereo unspecified)	20100 nM	> 100000 nM
CC[C@@]1(O)C(=O)OCc2c1cc1n(c2=O)Cc2c-1nc1cc(F)c(C)c3c1c2[C@@H](NC(=O)CO)CC3	< 10 nM	< 10 nM
O=C(/C=C/C=C/c1ccc2c(c1)OCO2)N/N=C\c1ccc(O)cc1O	1660 nM	5730 nM
C=CC(=O)N1CCC[C@@H](n2nc(-c3ccc(Oc4ccccc4)cc3)c3c(N)ncnc32)C1	67.4 nM	1240 nM
COC(=O)[C@]12CC[C@@H](C)[C@H](C)[C@@H]1C1=CC[C@@H]3[C@@](C)(CC#N)C4=C(C[C@@]3(C)[C@]1(C)CC2)OC[C@]4(C)C=O	10700 nM	42300 nM
CN(C)C1CN(C(=O)c2cc(-c3ccc4ncnc(N5CCc6cc(F)c(Cl)cc65)c4c3)cnc2N)C1	254 nM	1070 nM
O=C1OCC2=C1C(c1cccc(Cl)c1)c1cc3c(cc1N2CCO)CCC3 (stereo unspecified)	23.1 nM	840 nM
COc1cc(C(=O)NN=C2c3ccccc3-c3ccccc32)cc(OC)c1OC	3470 nM	41900 nM
Cc1cc(-c2cc(OC(=O)c3ccccc3)ccc2Cl)cc2nnc(Nc3ccc(OCCN4CCCC4)cc3)nc12	1320 nM	2910 nM
Nc1ncnc2c1ccn2-c1cccc(NC(=O)c2ccc(N3CCOCC3)c(C(F)(F)F)c2)c1	2130 nM	7070 nM
COC(=O)Nc1nc2ccc(C(=O)c3ccc(F)cc3)cc2[nH]1	812 nM	> 100000 nM
CC(=O)ON=C1C=CC(=C(C#N)c2ccccc2)C=C1	420 nM	12500 nM

Structure (SMILES)	GI50	TGI
COc1cc(N2CCC(N)CC2)ccc1Nc1ncc(Cl)c(-c2c[nH]c3ccccc23)n1	415 nM	1740 nM
C[C@]12CC[C@H]3[C@@H](CC[C@]4(O)C[C@@H](O[C@@H]5O[C@H](CO)[C@@H](O[C@@H]6OC[C@@H](O)[C@H](O)[C@H]6O)[C@H](O)[C@H]5O)CC[C@]34C=O)[C@@]1(O)CC[C@@H]2C1=CC(=O)OC1	10000 nM	32300 nM
CN1CCN(Cc2ccc(NC(=O)c3cncc(C#Cc4cnc5ccc(N6CCOCC6)nn45)c3)cc2C(F)(F)F)CC1	73.5 nM	165 nM
Cc1c2oc3c(C)ccc(C(=O)N[C@@H]4C(=O)N[C@H](C(C)C)C(=O)N5CCC[C@H]5C(=O)N(C)CC(=O)N(C)[C@@H](C(C)C)C(=O)O[C@H]4C)c3nc-2c(C(=O)N[C@@H]2C(=O)N[C@H](C(C)C)C(=O)N3CCC[C@H]3C(=O)N(C)CC(=O)N(C)[C@@H](C(C)C)C(=O)O[C@H]2C)c(N)c1=O (I: [aThr][dV]P[Sar][NMeV] / II: [aThr][dV]P[Sar][NMeV]; ester I:1-I:C, II:1-II:C; linker I:N-II:N via Actinocin(9to1))	–	48.5 nM and 15.7 nM
Nc1n[nH]c2ccc([C@@H]3Nc4ccc5cn[nH]c5c4[C@H]4C5CCC(C5)[C@@H]34)cc12 (stereo partly specified)	330 nM	5040 nM
CN1CCN(Cc2ccc(NC(=O)c3cncc(C#Cc4cnc5ccc(OCCCS(C)(=O)=O)nn45)c3)cc2C(F)(F)F)CC1	684 nM	1680 nM
COc1ccc(/C=C\c2cc(OC)c(OC)c(OC)c2)c(NS(=O)(=O)c2ccc(F)cc2)c1O	69.2 nM	–
NC1(C(=O)N[C@@H](CCO)c2ccc(Cl)cc2)CCN(c2ncnc3[nH]ccc23)CC1	128 nM and 162 nM	1170 nM and 2210 nM
CN1CCN(Cc2ccc(NC(=O)c3cncc(C#Cc4cnc5ccc(N)nn45)c3)cc2C(F)(F)F)CC1	852 nM	3240 nM
Nc1nc(N)c2c(n1)CCC(S(=O)(=O)c1ccc3ccccc3c1)C2 (stereo unspecified)	2250 nM	33000 nM
CO/C(=C1/NC(=O)C(Cc2ccc(O)c(Br)c2)N(C)C(=O)C(C)NC(=O)CCC/C=C(\C)CCC(C)OC1=O)c1ccccc1 (stereo unspecified)	21.7 nM	–
CC/C(=C(/c1ccc(OCCN(C)C)cc1)c1ccc(OC(=O)CCCCCCCCC(=O)c2c(C)[nH]c(/C=C3\N=C(c4ccc[nH]4)C=C3OC)c2C)cc1)c1ccccc1	3620 nM	> 100000 nM
CCCCCCCCCCCCCCCCCCOc1ccccc1COP(=O)(O)OOCC[N+](C)(C)C	493 nM	1470 nM
Cc1cnc(-c2ccc(-c3ccc(NC(=O)Nc4c(F)cc(F)cc4F)cc3F)c3c2C(=O)NC3)[nH]1	1480 nM	3860 nM
C/C=C/CC(C)C(O)[C@H](NC(=O)[C@@H]1CCCN1C(=O)C(C)(C)NC(=O)CCCCCCCCC)C(=O)NC(C)(C)C(=O)N[C@@H](CCC(N)=O)C(=O)N[C@H](CCC(N)=O)C(=O)NC(C)(C)C(=O)NC(C)(C)C(=O)N[C@@H](CCC(N)=O)C(=O)N[C@H](CC(C)C)C(=O)N[C@H](CO)CC(C)C (stereo partly drawn) (Decanoyl-[Aib]P[X11][Aib]Q[dQ][Aib][Aib]Q[dL][Leu(ol)])	1490 nM	2980 nM
COc1c(B(O)O)cccc1-c1nc2c(F)cc3n[nH]c(C)c3c2c2c1CCCC2	994 nM	4120 nM
CC(=O)Nc1cc2c3c(cccc3c1)-c1ccccc1-2	37400 nM	> 100000 nM
O=C(Nc1cccc(-n2cc(-c3ccncc3)c(-c3ccc(Cl)c(O)c3)n2)c1)Nc1ccc(Cl)c(Cl)c1	729 nM	4250 nM
COCCn1c2c([n+](Cc3cnccn3)c1C)C(=O)c1ccccc1C2=O	< 10 nM	14.1 nM
COc1cc(C)[nH]c(=O)c1CNC(=O)c1c(C)n([C@H](C)C2CCN(CC(F)(F)F)CC2)c2ccccc12	24900 nM	> 100000 nM
C#CCNC(=O)CC[C@@H](C)[C@H]1CC[C@H]2[C@@H]3CC[C@@H]4CC(=O)CC[C@]4(C)[C@H]3CC[C@]12C	13800 nM	45400 nM
Nc1c(C(=O)Nc2cccc(C(F)(F)F)c2)sc2nc3c(cc12)CCCCCC3	798 nM	3320 nM
COC(=O)c1c2c(c(C)[n+]([O-])c1C)C(=O)C(NCc1ccc(O)cc1)=CC2=O	402 nM	1740 nM
